Several values for one entry are separate records, joined by “and”; a condition that tells them apart may be missing. Equal entries are not always repeated. Where two headings read alike, the source gives them in different places. Positions of bridges follow the written chain, without caps; N, C: chain ends. Residues, ends and D or L forms follow the SMILES beside them. Some results are limits rather than exact numbers.

Data on eight compounds can be found in PMC7070897 (Molecules, 2020).

The nature of series [1]: on-resin Ugi-4CR macrocyclisation (stapling), Lys side-chain amine (i) to Asp/Glu side-chain acid (i+4): 1) paraformaldehyde 4 eq, pyrrolidine 4 eq, THF/MeOH 1:1, 30 min (imine); 2) isocyanide R-NC 4 eq, DCM/TFE 1:1, overnight; then TFA/TIS/H2O cleavage. Particulars: the molecule shown is the open-chain precursor, 18.0 h, 3 steps.
Series [2] relates to Phytophthora infestans (Mont.) de Bary.
[3] abbreviates: read-out: IC50 in μM, Phythophtora Infestants, Figures 1B and 2C, 96-well plate, OD 405 nm seven days after inoculation, triplicate, IC50 from dose-response curves by linear regression.
Where [4] appears, read: read-out: Half maximal inhibitory concentration, Phytophthora Infestans.
The mark [5] stands for this setting: read-out: Half maximal inhibitory concentration, Septoria Tritici.
Where [6] appears, read: read-out: Half maximal inhibitory concentration, Botrytis Cinerea.

For the compound `C=NCCCC[C@H](NC(=O)[C@H](C)NC(=O)[C@H](CCCCNC(=O)OC(C)(C)C)NC(=O)[C@H](CC(C)C)NC(=O)[C@H](CC(C)C)NC(=O)[C@H](CCCCNC(=O)OC(C)(C)C)NC(=O)[C@H](C)NC(=O)[C@H](CC(C)C)NC(C)=O)C(=O)N[C@@H](C)C(=O)N[C@@H](CCCCNC(=O)OC(C)(C)C)C(=O)N[C@@H](C)C(=O)N[C@@H](CC(=O)O)C(N)=O`, in series [1] (20-membered ring), the ring closure, conversion by HPLC (% crude UHPLC purity after cleavage) was 63 and 54.
For `C=NCCCC[C@H](NC(=O)[C@H](CCCCNC(=O)OC(C)(C)C)NC(=O)[C@H](CC(C)C)NC(C)=O)C(=O)N[C@@H](CC(C)C)C(=O)N[C@@H](CC(C)C)C(=O)N[C@@H](CCCCNC(=O)OC(C)(C)C)C(=O)N[C@@H](CCC(=O)O)C(=O)N[C@@H](CC(C)C)C(=O)N[C@@H](CC(C)C)C(=O)N[C@@H](CCCCNC(=O)OC(C)(C)C)C(=O)N[C@@H](CCCCNC(=O)OC(C)(C)C)C(=O)N[C@@H](CC(C)C)C(N)=O`, the ring closure, conversion by HPLC (% crude UHPLC purity after cleavage) in series [1] (21-membered ring) worked out at 68.
Regarding `CC(=O)N[C@@H](CC(C)C)C(=O)N[C@@H](CCCCN)C(=O)N[C@@H](CCCCN)C(=O)N[C@@H](CC(C)C)C(=O)N[C@@H](CC(C)C)C(=O)N[C@@H](CCCCN)C(=O)N[C@@H](CCCCN)C(=O)N[C@H]1CCCCNC(=O)CC[C@@H](C(N)=O)NC(=O)[C@H](CCCCN)NC(=O)[C@H](CCCCN)NC(=O)[C@H](CC(C)C)NC1=O` [Peptide 6, Ac-(cyclo-8,12))-[LKKLLKKKLKKE]-NH2] (Ac-LKKLLKKKLKKE-NH2; lactam 8-12), the IC50 was 18 µM in series [2] (setting [3]), 16.6 µM with Septoria tritici Desm. and over 50 µM with Botrytis cinerea Pers..
Regarding “Ac-(N-(2-(n-butylamino)-2-oxoethyl)-(cyclo-8,12))-[LAKLLKAKAKAD]-NH2 (sidechain bridge or staple) [Peptide 2]”, the results for the IC50 (in series [2] (setting [4]); in the series on Septoria tritici Desm. (setting [5]); in the series with Botrytis cinerea Pers. (setting [6])) were 26.2 µM, over 50 µM and over 50 µM, respectively.
As for “Ac-(N-(2-(n-dodecylamino)-2-oxoethyl)-(cyclo-8,12))-[LAKLLKAKAKAD]-NH2 (sidechain bridge or staple) [Peptide 3]”, the IC50 in series [2] (setting [4]) turned out to be 14.3 µM; in the series with Septoria tritici Desm. (setting [5]), 5.9 µM; with Botrytis cinerea Pers. (setting [6]), 9.8 µM.
For “Ac-(cyclo-8,12))-[LAKLLKAKAKAD]-NH2 (sidechain bridge or staple) [Peptide 4]” the same measures were 20.9 µM, over 50 µM and over 50 µM.
For Ac-LAKLLKAKAKAD-NH2 [Peptide 1] the same measures were over 50 µM, over 50 µM and over 50 µM.
Regarding “Ac-LKKLLKKLLKKL-NH2 [Peptide 5, Ac-LKKLLKKLLKKL]”, the IC50 in series [2] (setting [3]) is 5.4 µM; with Septoria tritici Desm., 4.5 µM; in the series on Botrytis cinerea Pers., over 50 µM.
